This passage reports inhibition and Activity results from ChEMBL document CHEMBL3045364, “Synthesis, structure, and estrogenic activity of 2- and 3-substituted 2,3-dihydro-4H-1-benzopyran-4-ones” (2013).

Active and inactive are the calls of the source. The rule behind the calls is not given here.

Assay [1] has as its target T1, Estrogen receptor (Homo sapiens) (UniProt P03372).
T1 sequence (whole entry): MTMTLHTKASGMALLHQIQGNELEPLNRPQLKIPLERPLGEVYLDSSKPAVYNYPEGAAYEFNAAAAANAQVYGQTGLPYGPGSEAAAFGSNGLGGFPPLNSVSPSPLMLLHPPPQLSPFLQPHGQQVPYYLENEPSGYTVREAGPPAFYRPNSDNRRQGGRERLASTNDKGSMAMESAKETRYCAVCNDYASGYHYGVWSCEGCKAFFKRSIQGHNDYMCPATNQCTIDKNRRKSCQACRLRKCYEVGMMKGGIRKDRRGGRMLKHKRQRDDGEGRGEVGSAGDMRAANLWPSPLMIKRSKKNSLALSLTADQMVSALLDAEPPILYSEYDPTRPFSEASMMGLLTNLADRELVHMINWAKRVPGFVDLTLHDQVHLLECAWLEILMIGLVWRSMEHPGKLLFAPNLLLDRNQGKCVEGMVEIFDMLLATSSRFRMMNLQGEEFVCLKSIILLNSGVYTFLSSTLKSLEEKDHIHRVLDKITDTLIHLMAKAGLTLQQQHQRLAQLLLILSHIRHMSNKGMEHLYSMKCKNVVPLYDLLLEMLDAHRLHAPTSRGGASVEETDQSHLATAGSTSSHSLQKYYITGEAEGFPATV
Nature of the assay: Displacement of [3H]E2 from Homo sapiens (human) recombinant ER-alpha by HAP binding assay. Background: Displacement assays read how much labelled ligand stays bound in the presence of the test substance.

Assay [2] relates to MVLN. Nature of the assay: Estrogenic activity in Homo sapiens (human) MVLN cells assessed as induction of ERE-dependent transcription at 1 uM after 24 hr by luciferase reporter gene assay. It is filed as functional. A general note: Reporter assays use an easily measured gene product as a stand-in for the process of interest.
For assay [3], the system named is MVLN. Nature of the assay: Estrogenic activity in Homo sapiens (human) MVLN cells assessed as induction of ERE-dependent transcription at 10 uM after 24 hr by luciferase reporter gene assay. It is filed as functional, cell-based.
The test system of assay [4] is MVLN. Nature of the assay: Estrogenic activity in Homo sapiens (human) MVLN cells assessed as induction of ERE-dependent transcription at 10 uM after 24 hr by luciferase reporter gene assay in presence of 0.1 uM antiestrogen, fulvestrant. In kind it is functional, cell-based.

For `Cc1ccc(/C=C2\COc3ccccc3C2=O)cc1`, the inhibition entry in assay [1] is “inactive”.
`CN(C)c1ccc(/C=C2\COc3ccccc3C2=O)cc1`: the inhibition entry in assay [1] is “inactive”. The Activity in the assay on MVLN [2] came out at 145%.
With `O=C1CC2(CCCCC2)Oc2cc(O)ccc21`, the inhibition result in assay [1] was “inactive”. Also, the Activity in the assay with MVLN [2] is given as 279%. Also, the result in the assay on MVLN [3] was Active. In addition, the outcome with MVLN [4] was inactive.
As for `COc1ccc2c(c1)OC1(CCCCC1)CC2=O`, the inhibition result in assay [1] is “inactive”. For the same compound, in the assay with MVLN [2], the outcome was inactive.
Turning to `O=C1/C(=C/c2ccccc2)COc2ccccc21`, the inhibition result in assay [1] was “inactive”. The outcome with MVLN [2] was inactive.
Consider `COc1cccc(/C=C2\COc3ccccc3C2=O)c1`, for which the inhibition entry in assay [1] is “inactive”. The Activity with MVLN [2] turned out to be 243%. For the same compound, the outcome in the assay with MVLN [3] was Active. In addition, the result in the assay on MVLN [4] was inactive.
For the compound `O=C1/C(=C/c2ccc(O)cc2)COc2ccccc21`, in assay [1], the inhibition result was “inactive”. Besides, the Activity in the assay on MVLN [2] was 236%. For the same compound, the outcome in the assay on MVLN [3] was Active. Further, in the assay on MVLN [4], the outcome was inactive.
For the compound `COc1ccc2c(c1)OC1(CCC(C(C)(C)C)CC1)CC2=O` (stereo not drawn), the inhibition entry in assay [1] is “inactive”.
Consider `COc1ccc2c(c1)OC1(CCC(c3ccccc3)CC1)CC2=O` (stereo not drawn), for which the inhibition entry in assay [1] is “inactive”.
Consider `COc1cc(OC)c(/C=C2\COc3ccccc3C2=O)c(OC)c1`, for which the inhibition entry in assay [1] was “inactive”. Moreover, the Activity in the assay with MVLN [2] stood at 134%.
